By Ki is commonly meant the dissociation constant of the complex between target and ligand, obtained from inhibition or displacement. High values mean lower affinity, low ones higher affinity. In general, IC50 refers to the concentration needed to halve the response being measured. A higher IC50 goes with weaker potency in that assay.

Holding throughout (format): binding
One experiment concerns the target T1, STAT6 (Homo sapiens, UniProt P42226).
T1 sequence (P42226 1-847): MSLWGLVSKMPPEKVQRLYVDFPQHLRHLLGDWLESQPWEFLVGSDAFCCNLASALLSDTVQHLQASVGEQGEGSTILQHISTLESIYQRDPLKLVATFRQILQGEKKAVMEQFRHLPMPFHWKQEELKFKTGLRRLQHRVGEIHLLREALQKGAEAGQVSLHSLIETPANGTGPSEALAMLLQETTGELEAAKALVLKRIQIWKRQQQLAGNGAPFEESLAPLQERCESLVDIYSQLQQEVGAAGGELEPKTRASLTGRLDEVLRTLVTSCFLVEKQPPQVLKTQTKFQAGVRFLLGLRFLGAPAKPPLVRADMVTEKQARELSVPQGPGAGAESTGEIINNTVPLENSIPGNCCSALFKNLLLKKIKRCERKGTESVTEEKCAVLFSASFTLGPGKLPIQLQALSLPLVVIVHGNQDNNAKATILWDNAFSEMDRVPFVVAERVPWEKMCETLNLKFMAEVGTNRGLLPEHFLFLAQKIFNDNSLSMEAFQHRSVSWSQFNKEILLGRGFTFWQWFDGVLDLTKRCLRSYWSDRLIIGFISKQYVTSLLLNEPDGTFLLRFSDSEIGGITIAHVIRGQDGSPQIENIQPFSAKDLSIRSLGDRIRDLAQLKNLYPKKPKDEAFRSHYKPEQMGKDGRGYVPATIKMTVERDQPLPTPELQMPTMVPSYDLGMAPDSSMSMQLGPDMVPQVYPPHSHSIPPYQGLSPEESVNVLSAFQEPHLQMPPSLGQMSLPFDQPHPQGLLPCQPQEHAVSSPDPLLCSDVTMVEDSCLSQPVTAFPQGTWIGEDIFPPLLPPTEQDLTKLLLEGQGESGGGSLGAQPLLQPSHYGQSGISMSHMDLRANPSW
As to the kind of experiment: Competitive fluorescence polarization (FP) assay, STAT6 SH2 domain. Conditions: for Ki: Ki derived from IC50; for IC50: mean ± SD, n = 3. On the procedure:
(§1) Fluorescence polarization assays
(§2) Competitive fluorescence polarization assays, which measure the abilities of test compounds (dissolved in DMSO) to displace a fluorescent-labeled peptide from the SH2 domain of a STAT protein, were carried out essentially as described. Proteins were used at the following final concentrations: 23 nM or 28 nM for STAT4; between 56 nM and 91 nM for STAT1; 107 nM or 110 nM for STAT3; between 131 nM and 177 nM for STAT5a; between 62 nM and 85 nM for STAT5b; and 101 nM or 106 nM for STAT6. These concentrations represent the approximate […]
(§3) dissociation constant for peptide binding of the respective protein batches used in the assays.
(§4) The following peptides were used: 5-carboxyfluorescein-GpYLPQNID-OH for STAT4; 5-carboxyfluorescein-GpYDKPHVL for STAT1; 5-carboxyfluorescein-GpYLPQTV-NH2 for STAT3; 5-carboxyfluorescein-GpYLVLDKW for STAT5a/b, and 5-carboxyfluorescein- […]
(§5) Gp[…]-OH for STAT6. All peptides were used at a final concentration of 10 nM. The buffer consisted of 10 mM Tris (pH 8.0), 50 mM NaCl, 1 mM EDTA, 1 mM DTT, 0 .1 % Nonidet P-40 substitute, and 2 % DMSO. After incubation of protein and test compound for 1 h at room temperature, the fluorescent -labeled peptide was added. Samples were transferred to 384 - well microtiter plates and fluorescence polarization was read after an additional 60 min of incubation time. Measurements were performed in triplicate. Percent binding was calculated based on a logarithmic curve fit using OriginPro 8G software. IC 50 values were converted to Ki-values via the published equation[3] using the corresponding Excel spread sheet […]
(§6) https://websites.umich.edu/~shaomengwanglab/software/calc_ki/index.html .
(§7) Error bars represent standard deviations. Ligand efficiencies (LE) were calculated by the formula LE = -1,37 x log Ki / number of non-hydrogen atoms.[4] […]
For orientation: Polarisation of emitted light reports the rotation of a fluorescent probe.

The next experiment addresses T2, STAT1 (Homo sapiens, UniProt P42224).
T2 sequence (P42224 1-750): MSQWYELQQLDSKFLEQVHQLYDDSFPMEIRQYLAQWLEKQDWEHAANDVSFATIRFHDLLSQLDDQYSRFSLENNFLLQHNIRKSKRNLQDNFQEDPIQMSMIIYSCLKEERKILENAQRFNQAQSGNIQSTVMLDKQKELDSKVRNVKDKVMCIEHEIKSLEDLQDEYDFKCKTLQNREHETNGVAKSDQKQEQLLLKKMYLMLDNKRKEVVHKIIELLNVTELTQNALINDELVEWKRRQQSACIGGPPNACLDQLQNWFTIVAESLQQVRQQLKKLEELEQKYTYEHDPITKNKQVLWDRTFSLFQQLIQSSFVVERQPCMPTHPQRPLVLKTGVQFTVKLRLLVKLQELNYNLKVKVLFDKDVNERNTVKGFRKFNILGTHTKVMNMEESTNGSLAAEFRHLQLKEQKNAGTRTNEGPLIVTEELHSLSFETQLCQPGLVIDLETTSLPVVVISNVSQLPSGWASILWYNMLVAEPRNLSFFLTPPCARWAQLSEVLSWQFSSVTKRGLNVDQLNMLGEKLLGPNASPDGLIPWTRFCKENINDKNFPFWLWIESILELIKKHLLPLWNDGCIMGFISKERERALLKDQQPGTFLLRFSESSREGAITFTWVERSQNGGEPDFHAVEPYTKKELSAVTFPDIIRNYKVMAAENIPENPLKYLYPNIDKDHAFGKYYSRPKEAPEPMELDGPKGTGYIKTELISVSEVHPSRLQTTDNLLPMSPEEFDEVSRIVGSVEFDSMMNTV
The experiment in a line: Competitive fluorescence polarization (FP) assay, STAT1 SH2 domain. To be noted: for IC50: mean ± SD, n = 3; for Ki: tracer 5-carboxyfluorescein-GpYDKPHVL, Ki derived from IC50. On the procedure:
as §1, §2, §3, §4, §5, §6, §7

The next experiment has as its target STAT3 (Homo sapiens, UniProt P40763). The experiment in a line: Competitive fluorescence polarization (FP) assay, STAT3 SH2 domain. Conditions: for IC50: mean ± SD, n = 3; for Ki: tracer 5-carboxyfluorescein-GpYLPQTV-NH2, Ki derived from IC50. On the procedure: as §1, §2, §3, §4, §5, §6, §7

Sequence of STAT3 (P40763 whole entry, species assumed, the tested form may be a part): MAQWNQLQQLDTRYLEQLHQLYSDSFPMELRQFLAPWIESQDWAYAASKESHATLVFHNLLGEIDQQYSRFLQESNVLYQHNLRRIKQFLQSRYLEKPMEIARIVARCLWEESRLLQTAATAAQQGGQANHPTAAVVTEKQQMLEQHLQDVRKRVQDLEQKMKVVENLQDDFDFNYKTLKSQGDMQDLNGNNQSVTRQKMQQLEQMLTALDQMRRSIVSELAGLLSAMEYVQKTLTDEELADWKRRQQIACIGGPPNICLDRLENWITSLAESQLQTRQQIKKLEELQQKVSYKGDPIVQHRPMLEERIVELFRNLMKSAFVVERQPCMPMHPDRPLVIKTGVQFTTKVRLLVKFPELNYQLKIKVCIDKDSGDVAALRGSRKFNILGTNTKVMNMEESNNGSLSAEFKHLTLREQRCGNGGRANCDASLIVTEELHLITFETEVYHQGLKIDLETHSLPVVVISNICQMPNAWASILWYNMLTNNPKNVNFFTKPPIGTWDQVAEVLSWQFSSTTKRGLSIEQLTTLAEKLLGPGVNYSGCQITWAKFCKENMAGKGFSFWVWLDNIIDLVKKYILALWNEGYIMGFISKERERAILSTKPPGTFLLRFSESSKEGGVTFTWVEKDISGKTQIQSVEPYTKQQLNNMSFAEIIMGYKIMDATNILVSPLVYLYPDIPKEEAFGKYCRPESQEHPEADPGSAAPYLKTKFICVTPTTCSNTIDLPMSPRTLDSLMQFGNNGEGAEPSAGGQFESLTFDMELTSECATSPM

Turning to `O=P(O)(O)Oc1ccc(-c2ccccc2)cc1` [Compound 1, para‐biphenyl phosphate], the inhibition constant (Ki) on STAT6 was 7.3 ± 0.4 µM; on STAT1 it was 8.1 ± 1.4 µM; on STAT3, 8.4 ± 1 µM. Moreover, the figures for the IC50 on STAT6, at STAT1 and on STAT3 were 15 ± 1 µM, 16 ± 3 µM and 18 ± 3 µM, respectively.
In the case of `O=P(O)(O)Oc1ccc(-c2ccc3ccccc3c2)cc1` [Compound 6g], the Ki came to 9.3 ± 1.1 µM on STAT6, 11 ± 1 µM on STAT1 and 18 ± 1 µM on STAT3. The IC50 on STAT6 came out at 19 ± 2 µM; at STAT1, 22 ± 2 µM; on STAT3, 37 ± 2 µM.
For the compound `O=P(O)(O)Oc1ccc(-c2ccccc2)cc1F` [Compound 6h], the inhibition constant Ki at STAT6 came out at 46 ± 3 µM; on STAT1 it was 6.3 ± 0.6 µM; on STAT3, 4.5 ± 0.3 µM. In addition, the IC50 on STAT6 amounted to 90 ± 7 µM; on STAT1, 13 ± 1 µM; on STAT3, 9.1 ± 0.6 µM.
`O=P(O)(O)Oc1ccc(-c2ccc3ccccc3c2)cc1F` [Compound 6m]: the Ki at STAT6 stood at 29 ± 2 µM; on STAT1, 3.8 ± 0.3 µM; at STAT3, 5 ± 0.5 µM. Also, the values for the IC50 at STAT6, on STAT1 and at STAT3 were 57 ± 4 µM, 7.8 ± 0.6 µM and 10 ± 1 µM, respectively.
On to `O=P(O)(O)C(F)(F)c1ccc(-c2ccc3ccccc3c2)cc1F` [Compound 8a], for which the results for the inhibitory constant (Ki) at STAT6, at STAT1 and on STAT3 were 15 ± 2 µM, 36 ± 2 µM and 22 ± 1 µM, respectively. Also, the IC50 on STAT6 is 30 ± 3 µM; on STAT1 it was 63 ± 3 µM; at STAT3, 44 ± 2 µM.
As to `Cc1cc(-c2ccc(C(F)(F)P(=O)(O)O)c(F)c2)cs1` [Compound 8k], the Ki at STAT6 is 13 ± 1 µM; on STAT1 it was 24 ± 2 µM; at STAT3, 15 ± 2 µM. Besides, the concentration for half-maximal inhibition (IC50) on STAT6 was 26 ± 2 µM; on STAT1 it was 48 ± 4 µM; at STAT3, 31 ± 4 µM.

For the origin of these results see paper PMC12087874, “Biaryl Phosphates and Phosphonates as Selective Inhibitors of the Transcription Factor STAT4” (Angewandte Chemie (International Ed. in English), 2025).
